From US6479467B1, “Cyclodextrin ethers” (Eastman Chemical Company, priority 1999, dated 2002)

Procedure: The suspensions were stirred for 24 hours at 25° C. The undissolved residues were removed by filtration through a […] filter. The solutions were diluted with a 1:1 water/ethanol mixture and concentrations of the guest molecules were determined spectrophotometrically using an HP 8542 diode array spectrophotometer. The solubility of the guest molecules was represented as a function of the CD derivative concentration. The apparent binding constants were calculated from the slope of the solubility isotherm. The guest molecules evaluated were water-immiscible pharmaceuticals, fragrances, and other organic molecules.

Compound	Kc(HBen-β-CD), apparent binding constant in guest molecule/CD derivative complex [M⁻¹]	Kc(HP-β-CD), apparent binding constant in guest molecule/CD derivative complex [M⁻¹]	Binding constants compared with HP-β-CD, in words
O=C(O)c1ccccc1O [Salicylic Acid, salicylic acid]	183		
COc1ccc(Cl)cc1C(=O)NCCc1ccc(S(=O)(=O)NC(=O)NC2CCCCC2)cc1 [Glibenclamide, glibenclamide]	136	62	
Cc1ccccc1 [Toluene, toluene]	1111	773	
CC(C)Cc1ccc(C(C)C(=O)O)cc1 (centres unmarked) [Ibuprofen, ibuprofen]	520	376	
hydroxybutenyl-β-cyclodextrin [HBen-β-CD]			higher binding constants than did HP-β-CD
